What all share (type): cell-based
In one test the target is T1, mouse SMO^WT (Mus musculus, UniProt P56726).
T1 construct: expressed in transfected cells
Put plainly: Mouse assay: Gli1 qPCR in MEF cells stably expressing mouse SMO WT. Conditions: mSHh-treated, 24 hours; for IC50: Gli1 inhibition by qPCR, read-out: Mouse WT pIC50 (converted); for Mouse WT % Inh: percentage Gli1 inhibition. In short, it runs like this:
(§1)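 MEFs stably expressing the SMO variant pre-treated with compound 1 h, then stimulated with mSHh and incubated 24 h at 37 °C. Gli1 mRNA quantified by one-step TaqMan qPCR with Gusb reference, four replicates per concentration; expressed as % Gli1 inhibition relative to mSHh-treated controls.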

A further test concerns the target T2, mouse SMO^D473H (Mus musculus, UniProt P56726, D477H).
T2 construct: expressed in transfected cells
Nature of the test: Mouse assay: Gli1 qPCR in MEF cells stably expressing mouse SMO D473H. The following applies: mSHh-treated, 24 hours; for IC50: Gli1 inhibition by qPCR, read-out: Mouse D473H pIC50 (converted); for Mouse D473H % Inh: percentage Gli1 inhibition. In short, it runs like this:
as §1

The next test has as its target T3, mouse SMO^W535L (Mus musculus, UniProt P56726, W539L).
T3 construct: expressed in transfected cells
Nature of the test: Mouse assay: Gli1 qPCR in MEF cells stably expressing mouse SMO W535L. Conditions: mSHh-treated, 24 hours; for IC50: Gli1 inhibition by qPCR, read-out: Mouse W535L pIC50 (converted); for Mouse W535L % Inh: percentage Gli1 inhibition. In short, it runs like this: as §1

In another test the target is T4, human SMO D473H (Homo sapiens, UniProt Q99835, D473H).
T4 construct: expressed in transfected cells; host or cells: SMO knock-out mouse embryonic fibroblasts (MEF SMO-/-), BacMam transduction
Put plainly: Human assay: Gli1 qPCR in MEF SMO-/- cells BacMam-transduced with hSMO D473H variant. Conditions: mSHh-treated, 24 hours; for IC50: Gli1 inhibition by qPCR, read-out: Human D473H pIC50 (converted); for Human D473H % Inh: percentage Gli1 inhibition. The procedure:
Cell culture. All materials were purchased from Sigma-Aldrich, unless otherwise stated.
(§2) BacMam transduction and compound treatment. MEF^SMO−/− cells were transduced with BacMam virus (MOI 1:10 in the presence of 4.2 mM valproic acid) containing either the hSMO WT or desired receptor variant sequence. Transduced cells were seeded at 6000 cells per well in a Poly-D-Lysine coated 384-well plate (Greiner) before the spent culture medium was removed on the following day and replaced with assay medium (OptiMEM (Gibco) supplemented with 50 U/mL penicillin and 5 mg/mL streptomycin (supplied as a mixture), 0.1 mMMEM Non-Essential Amino Acids (supplied as 100× solution, ThermoFisher), 1 mM sodium pyruvate and 10 mM HEPES) containing test compounds at 2.5× final assay concentrations.
(§3) Cell lysis and one-step qPCR. The Cells-to-CT™ 1-Step TaqMan® Kit was used in conjunction with TaqMan primer-probe assays for the detection of Gill (FAM, Mm00494654_m1) and Gusb (VIC, Mm01197698_m1) genes (all purchased from Life Technologies). Following 24 hours cell treatment, spent medium was removed and cells were washed with PBS before the application of lysis and stop solution as per manufacturer's instructions. The qPCR reactions were run in a 384-well PCR plate using master mix prepared according to manufacturer's instructions and cell lysate samples from treatment wells. Real-time PCR amplification was detected using the Bio-Rad CFX384 Touch PCR system. Four experimental replicates (two cell replicates and two qPCR replicates) were performed for each compound concentration tested. Real-time data were analysed using the CFX Maestro software (Bio-Rad) and obtained expression values were converted to percentage Gill inhibition by normalising to the average Gill expression of mSHh-treated control samples

The next test deals with T5, human SMO W535L (Homo sapiens, UniProt Q99835, W535L).
T5 construct: expressed in transfected cells; host or cells: SMO knock-out mouse embryonic fibroblasts (MEF SMO-/-), BacMam transduction
Nature of the test: Human assay: Gli1 qPCR in MEF SMO-/- cells BacMam-transduced with hSMO W535L variant. The following applies: mSHh-treated, 24 hours; for IC50: Gli1 inhibition by qPCR, read-out: Human W535L pIC50 (converted); for Human W535L % Inh: percentage Gli1 inhibition. The protocol: (§4) Cell culture. All materials were purchased from Sigma-Aldrich, unless otherwise stated. SMO knock-out mouse embryonic fibroblasts (MEF^SMO−/−) were maintained in Dulbecco's modified Eagle's medium (DMEM)/high-glucose medium supplemented with 10% foetal bovine serum (FBS, Invitrogen), 50 U/mL penicillin and 5 mg/mL streptomycin (supplied as a mixture), 0.1 mMMEM Non-Essential Amino Acids (supplied as 100× solution, ThermoFisher) and 1 mM sodium pyruvate at 37° C. in a humidified 95% air/5% CO2 atmosphere.
as §2, with “concentrations. After 1 hour incubation, cells were treated with assay medium containing mSHh prepared at 2.5× of final assay concentrations specified in the text and incubated for a further 24 hours at 37° C. in a humidified 95% air/5% […] atmosphere prior to qPCR analysis.” for “concentrations.”
as §3

The target in a further test is T6, hSMO WT (Homo sapiens, UniProt Q99835).
T6 construct: expressed in transfected cells; host or cells: SMO knock-out mouse embryonic fibroblasts (MEF SMO-/-), BacMam transduction
Nature of the test: Human assay: Gli1 qPCR in MEF SMO-/- cells BacMam-transduced with hSMO WT. Conditions: mSHh-treated, 24 hours; for IC50: Gli1 inhibition by qPCR, read-out: Human WT pIC50 (converted); for Human WT % Inh: percentage Gli1 inhibition. The procedure:
as §4
as §2, with “concentrations. After 1 hour incubation, cells were treated with assay medium containing mSHh prepared at 2.5× of final assay concentrations specified in the text and incubated for a further 24 hours at 37° C. in a humidified 95% air/5% […] atmosphere prior to qPCR analysis.” for “concentrations.”
as §3

T5 sequence (Q99835 28-787 W535L): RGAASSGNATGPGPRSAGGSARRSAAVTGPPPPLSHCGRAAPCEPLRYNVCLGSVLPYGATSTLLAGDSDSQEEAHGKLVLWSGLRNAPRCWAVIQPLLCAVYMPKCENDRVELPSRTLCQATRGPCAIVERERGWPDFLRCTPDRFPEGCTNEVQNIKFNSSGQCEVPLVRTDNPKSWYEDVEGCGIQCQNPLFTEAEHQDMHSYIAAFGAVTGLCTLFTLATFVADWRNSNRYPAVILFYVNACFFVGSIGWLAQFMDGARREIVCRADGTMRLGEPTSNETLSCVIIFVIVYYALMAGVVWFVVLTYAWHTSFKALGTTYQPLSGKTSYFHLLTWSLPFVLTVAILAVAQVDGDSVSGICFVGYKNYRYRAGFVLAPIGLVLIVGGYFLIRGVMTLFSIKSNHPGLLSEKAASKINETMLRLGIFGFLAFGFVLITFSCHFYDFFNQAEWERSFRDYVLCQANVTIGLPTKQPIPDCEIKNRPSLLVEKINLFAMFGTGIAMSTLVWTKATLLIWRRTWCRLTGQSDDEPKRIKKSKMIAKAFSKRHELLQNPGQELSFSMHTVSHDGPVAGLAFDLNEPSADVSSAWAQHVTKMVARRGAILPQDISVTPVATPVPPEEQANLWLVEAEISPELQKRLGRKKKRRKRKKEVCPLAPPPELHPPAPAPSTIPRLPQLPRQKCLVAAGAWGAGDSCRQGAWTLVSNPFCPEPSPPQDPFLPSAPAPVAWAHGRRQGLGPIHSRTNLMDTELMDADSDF
T2 sequence (P56726 33-793 D477H): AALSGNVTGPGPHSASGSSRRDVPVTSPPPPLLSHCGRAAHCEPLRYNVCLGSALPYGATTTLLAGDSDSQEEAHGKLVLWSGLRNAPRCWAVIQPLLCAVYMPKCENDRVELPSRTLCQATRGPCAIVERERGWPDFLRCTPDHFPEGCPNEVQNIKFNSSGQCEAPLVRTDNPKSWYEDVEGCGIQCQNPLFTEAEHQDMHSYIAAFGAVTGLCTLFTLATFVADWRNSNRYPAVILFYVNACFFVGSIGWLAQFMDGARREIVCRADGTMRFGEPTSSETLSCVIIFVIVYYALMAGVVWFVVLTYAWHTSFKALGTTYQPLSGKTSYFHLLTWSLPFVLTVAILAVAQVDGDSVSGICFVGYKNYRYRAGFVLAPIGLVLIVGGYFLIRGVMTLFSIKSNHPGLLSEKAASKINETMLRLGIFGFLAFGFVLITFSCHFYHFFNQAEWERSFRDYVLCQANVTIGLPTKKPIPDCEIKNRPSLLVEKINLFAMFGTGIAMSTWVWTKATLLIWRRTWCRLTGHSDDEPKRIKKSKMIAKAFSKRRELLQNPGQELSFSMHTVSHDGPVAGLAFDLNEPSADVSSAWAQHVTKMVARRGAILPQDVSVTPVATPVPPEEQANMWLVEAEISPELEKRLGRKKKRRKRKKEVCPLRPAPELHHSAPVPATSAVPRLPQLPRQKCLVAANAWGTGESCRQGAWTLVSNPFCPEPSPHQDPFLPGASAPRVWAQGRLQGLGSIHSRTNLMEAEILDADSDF
T6 sequence (Q99835 28-787): as the sequence (Q99835 28-787 W535L) above, with L508W counted along it
T3 sequence (P56726 33-793 W539L): as the sequence (P56726 33-793 D477H) above, with H445D, W507L counted along it
T4 sequence (Q99835 28-787 D473H): as the sequence (Q99835 28-787 W535L) above, with D446H, L508W counted along it
T1 sequence (P56726 33-793): as the sequence (P56726 33-793 D477H) above, with H445D counted along it

Consider `CC1CN(Cc2cccc(C(=O)Nc3ccc(-c4nc(C5CC5)n[nH]4)cc3)c2)CCS1(=O)=O` (stereo not shown) [Example 1-2, N-[4-(3-Cyclopropyl-1H-1,2,4-triazol-5-yl)phenyl]-3-[(2-methyl-1,1-dioxo-1,4-thiazinan-4-yl)methyl]benzamide], for which, on mouse SMO^WT, the IC50 was 0.0158 µM and the “Mouse WT % Inh” value came to 97.3%. For the same compound, at mouse SMO^D473H, the IC50 was 0.126 µM and the “Mouse D473H % Inh” value came out at 95.6%. In addition, at mouse SMO^W535L, the IC50 was 0.2 µM and the “Mouse W535L % Inh” value amounted to 63.3%. In addition, on human SMO D473H, the IC50 is 0.2 µM and the “Human D473H % Inh” value stood at 85%. On human SMO W535L, the IC50 was 0.02 µM and the “Human W535L % Inh” value is reported as 78.2%.

Regarding `O=C(Nc1ccc(-c2nc(Cc3ccc(Br)cc3)n[nH]2)cc1)c1cccc(CN2CCS(=O)(=O)CC2)c1` [Example 3-24, N-[4-[3-[(4-bromophenyl)methy]-1H-1,2,4-triazol-5-yl]phenyl]-3-[(1,1-dioxo-1,4-thiazinan-4-yl)methyl]benzamide], at mouse SMO^WT, the IC50 was 0.00398 µM and the “Mouse WT % Inh” value came to 98.8%. For the same compound, at mouse SMO^D473H, the IC50 is 0.0501 µM and the “Mouse D473H % Inh” value is 98.5%. Also, at mouse SMO^W535L, the IC50 was 0.0398 µM and the “Mouse W535L % Inh” value was found to be 72.5%. On hSMO WT, the IC50 was 0.00631 µM and the “Human WT % Inh” value was 94%. Also, on human SMO D473H, the IC50 was 0.0251 µM and the “Human D473H % Inh” value was 104%. On human SMO W535L, the IC50 was 0.0251 µM and the “Human W535L % Inh” value turned out to be 98.5%.

For the compound `Cn1nc(-c2ccc(NC(=O)c3cccc(CN4CCS(=O)(=O)CC4)c3)cn2)cc1C1CC1` [Example 5-4, N-[6-(5-Cyclopropyl-1-methylpyrazol-3-yl)pyridin-3-yl]-3-[(1,1-dioxo-1,4-thiazinan-4-yl)methyl]benzamide], on mouse SMO^WT, the IC50 is 0.00794 µM and the “Mouse WT % Inh” value is on record as 97.3%. Moreover, on mouse SMO^D473H, the IC50 was 0.126 µM and the “Mouse D473H % Inh” value is given as 97.0%. Besides, at mouse SMO^W535L, the IC50 was 0.251 µM and the “Mouse W535L % Inh” value came to 66.4%. In addition, on human SMO D473H, the IC50 is 0.794 µM and the “Human D473H % Inh” value is reported as 107.7%. At human SMO W535L, the IC50 is 0.0398 µM and the “Human W535L % Inh” value was determined as 85.9%.

For the compound `CC(C)c1noc(-c2ccc(NC(=O)c3cccc(CN4CCS(=O)(=O)CC4)c3)cc2)n1` [Example 4-10, 3-[(1,1-Dioxo-1,4-thiazinan-4-yl)methyl]-N-[4-(3-propan-2-yl-1,2,4-oxadiazol-5-yl)phenyl]benzamide], at mouse SMO^WT, the IC50 was 0.00631 µM and the “Mouse WT % Inh” value was 97.8%. In addition, at mouse SMO^D473H, the IC50 was 0.0126 µM and the “Mouse D473H % Inh” value is 98.1%. Moreover, at mouse SMO^W535L, the IC50 is 0.0631 µM and the “Mouse W535L % Inh” value worked out at 54.8%. Besides, at hSMO WT, the IC50 was 0.00501 µM and the “Human WT % Inh” value is 88.4%. Moreover, at human SMO D473H, the IC50 is 0.0501 µM and the “Human D473H % Inh” value is 100.2%. On human SMO W535L, the IC50 is 0.0126 µM and the “Human W535L % Inh” value was 77.8%.

On to `O=C(Nc1ccc(-c2nc(C3CC3)n[nH]2)cc1)c1cccc(CN2CCS(=O)(=O)CC2)c1` [Example 3-3, N-[4-(3-Cyclopropyl-1H-1,2,4-triazol-5-yl)phenyl]-3-[(1,1-dioxo-1,4-thiazinan-4-yl)methyl]benzamide], for which, on mouse SMO^WT, the IC50 was 0.0158 µM and the “Mouse WT % Inh” value was 96.6%. Further, on mouse SMO^D473H, the IC50 is 0.158 µM and the “Mouse D473H % Inh” value is reported as 89.9%. Moreover, at mouse SMO^W535L, the IC50 was 0.158 µM and the “Mouse W535L % Inh” value worked out at 61.9%. Besides, on hSMO WT, the IC50 is 0.0316 µM and the “Human WT % Inh” value came to 85.9%. At human SMO D473H, the IC50 was 1.26 µM and the “Human D473H % Inh” value came out at 77.2%. Further, on human SMO W535L, the IC50 was 0.1 µM and the “Human W535L % Inh” value is listed as 88.4%.

Consider `Cc1oc(-c2ccc(NC(=O)c3ccc(F)c(CN4CCS(=O)(=O)CC4)c3)cc2)nc1C1CC1` [Example 4-3, N-[4-(4-Cyclopropyl-5-methyl-1,3-oxazol-2-yl)phenyl]-3-[(1,1-dioxo-1,4-thiazinan-4-yl)methyl]-4-fluorobenzamide], for which, on mouse SMO^WT, the IC50 was 0.0002 µM and the “Mouse WT % Inh” value is listed as 97.1%. Moreover, at mouse SMO^D473H, the IC50 is 0.002 µM and the “Mouse D473H % Inh” value is 97.4%. Moreover, at mouse SMO^W535L, the IC50 is 0.01 µM and the “Mouse W535L % Inh” value was determined as 71.9%. Besides, on hSMO WT, the IC50 was 0.000316 µM and the “Human WT % Inh” value worked out at 93.6%. For the same compound, on human SMO D473H, the IC50 is 0.0251 µM and the “Human D473H % Inh” value is 103.2%. Besides, at human SMO W535L, the IC50 was 0.0126 µM and the “Human W535L % Inh” value was determined as 95.6%.

In the case of `O=C(Nc1ccc(-c2nc(C3CC3)n[nH]2)cc1)c1cc(F)cc(CN2CCS(=O)(=O)CC2)c1` [Example 2-2, N-[4-(5-Cyclopropyl-1H-1,2,4-triazol-3-yl)phenyl]-3-[(1,1-dioxo-1,4-thiazinan-4-yl)methyl]-5-fluorobenzamide], at mouse SMO^WT, the IC50 was 0.01 µM and the “Mouse WT % Inh” value came to 95.8%. For the same compound, on mouse SMO^D473H, the IC50 is 0.126 µM and the “Mouse D473H % Inh” value worked out at 91.3%. In addition, on mouse SMO^W535L, the IC50 was 0.126 µM and the “Mouse W535L % Inh” value was 67.2%. On human SMO D473H, the IC50 was 0.794 µM and the “Human D473H % Inh” value turned out to be 73.6%. Besides, at human SMO W535L, the IC50 was 0.00794 µM and the “Human W535L % Inh” value came out at 79.1%.

With `CS(=O)(=O)c1ccc(C(=O)Nc2ccc(Cl)c(-c3ccccn3)c2)c(Cl)c1` [Vismodegib, reference compound], the “Human WT % Inh” value at hSMO WT is 100.1%. Also, at human SMO D473H, the “Human D473H % Inh” value was found to be 45.4%. Also, the “Human W535L % Inh” value at human SMO W535L is 92.6%.

With `O=C(Nc1ccc(-c2nc(C3CC3)n[nH]2)cc1)c1cc(Cl)cc(CN2CCS(=O)(=O)CC2)c1` [Example 2-4, 3-Chloro-N-[4-(5-cyclopropyl-1H-1,2,4-triazol-3-yl)phenyl]-5-[(1,1-dioxo-1,4-thiazinan-4-yl)methyl]benzamide], on mouse SMO^WT, the IC50 is 0.00501 µM and the “Mouse WT % Inh” value is 95.4%. In addition, at mouse SMO^D473H, the IC50 was 0.0398 µM and the “Mouse D473H % Inh” value worked out at 95.4%. Further, at mouse SMO^W535L, the IC50 was 0.0398 µM and the “Mouse W535L % Inh” value was found to be 60.2%. In addition, on human SMO D473H, the IC50 was 0.631 µM and the “Human D473H % Inh” value is 76.5%. At human SMO W535L, the IC50 is 0.00501 µM and the “Human W535L % Inh” value is on record as 87.8%.

These data come from US20250136559A1, “SMO MODULATOR COMPOUNDS” (OMASS THERAPEUTICS LIMITED, priority 2022, published 2025).
